Reference: PubChem BioAssay AID328 (DTP/NCI, 2004)
Inconclusive results and toxic doses are left out. How the source made its calls: active means survival T/C of 150% or more; inactive means T/C below 125% in these data.

Test system: BDF1 mice, P388 leukemia ip, median survival T/C
Assay: NCI In Vivo Anticancer Drug Screen. Data for tumor model P388 Leukemia (intraperitoneal) in B6D2F1 (BDF1) mice
Settings: endpoint: median survival time, higher = longer survival
Outline: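 Each value expresses how treatment altered survival: treated-mouse outcome over vehicle-mouse outcome, both groups bearing the transplanted tumour.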

Measured: T/C

CCc1nc(N)nc(N)c1-c1ccc(Cl)cc1
inactive: dose: 2.0 mg/kg/injection, schedule: Q03HX008 (ip), vehicle: Klucel (hydroxypropylcellulose) (HPC) 100 % of control | dose: 2.0 mg/kg/injection, schedule: Q03HX016 (ip), vehicle: Klucel (hydroxypropylcellulose) (HPC) 91 % of control | dose: 2.0 mg/kg/injection, schedule: Q03HX024 (ip), vehicle: Klucel (hydroxypropylcellulose) (HPC) 91 % of control | dose: 4.0 mg/kg/injection, schedule: Q01DX009 (ip), vehicle: Klucel (hydroxypropylcellulose) (HPC) 95 % of control | dose: 4.0 mg/kg/injection, schedule: Q01DX009 (sc), vehicle: Klucel (hydroxypropylcellulose) (HPC) 100 % of control | dose: 4.0 mg/kg/injection, schedule: Q03HX008 (ip), vehicle: Klucel (hydroxypropylcellulose) (HPC) 95 % of control | dose: 4.0 mg/kg/injection, schedule: Q03HX016 (ip), vehicle: Klucel (hydroxypropylcellulose) (HPC) 100 % of control | dose: 4.0 mg/kg/injection, schedule: Q03HX024 (ip), vehicle: Klucel (hydroxypropylcellulose) (HPC) 91 % of control | dose: 8.0 mg/kg/injection, schedule: Q01DX009 (ip), vehicle: Klucel (hydroxypropylcellulose) (HPC) 91 % of control | dose: 8.0 mg/kg/injection, schedule: Q01DX009 (sc), vehicle: Klucel (hydroxypropylcellulose) (HPC) 100 % of control | dose: 8.0 mg/kg/injection, schedule: Q01DX010 (ip), vehicle: saline 100 % of control | dose: 8.0 mg/kg/injection, schedule: Q03HX008 (ip), vehicle: Klucel (hydroxypropylcellulose) (HPC) 100 % of control | dose: 8.0 mg/kg/injection, schedule: Q03HX016 (ip), vehicle: Klucel (hydroxypropylcellulose) (HPC) 91 % of control | dose: 8.0 mg/kg/injection, schedule: Q03HX024 (ip), vehicle: Klucel (hydroxypropylcellulose) (HPC) 95 % of control | dose: 16.0 mg/kg/injection, schedule: Q01DX001 (ip), vehicle: Klucel (hydroxypropylcellulose) (HPC) 100 % of control | dose: 16.0 mg/kg/injection, schedule: Q01DX001 (oral), vehicle: Klucel (hydroxypropylcellulose) (HPC) 100 % of control | dose: 16.0 mg/kg/injection, schedule: Q01DX001 (sc), vehicle: Klucel (hydroxypropylcellulose) (HPC) 100 % of control | dose: 16.0 mg/kg/injection, schedule: Q01DX009 (ip), vehicle: Klucel (hydroxypropylcellulose) (HPC) 91 % of control | dose: 16.0 mg/kg/injection, schedule: Q01DX009 (oral), vehicle: Klucel (hydroxypropylcellulose) (HPC) 104 % of control | dose: 16.0 mg/kg/injection, schedule: Q01DX009 (sc), vehicle: Klucel (hydroxypropylcellulose) (HPC) 100 % of control | dose: 16.0 mg/kg/injection, schedule: Q01DX010 (ip), vehicle: saline 95 % of control | dose: 16.0 mg/kg/injection, schedule: Q03HX008 (ip), vehicle: Klucel (hydroxypropylcellulose) (HPC) 91 % of control | dose: 16.0 mg/kg/injection, schedule: Q03HX016 (ip), vehicle: Klucel (hydroxypropylcellulose) (HPC) 100 % of control | dose: 16.0 mg/kg/injection, schedule: Q03HX024 (ip), vehicle: Klucel (hydroxypropylcellulose) (HPC) 100 % of control | dose: 16.0 mg/kg/injection, schedule: Q04DX003 (ip), vehicle: Klucel (hydroxypropylcellulose) (HPC) 100 % of control | dose: 16.0 mg/kg/injection, schedule: Q08DX002 (ip), vehicle: Klucel (hydroxypropylcellulose) (HPC) 100 % of control | dose: 32.0 mg/kg/injection, schedule: Q01DX001 (ip), vehicle: Klucel (hydroxypropylcellulose) (HPC) 100 % of control | dose: 32.0 mg/kg/injection, schedule: Q01DX001 (oral), vehicle: Klucel (hydroxypropylcellulose) (HPC) 90 % of control | dose: 32.0 mg/kg/injection, schedule: Q01DX001 (sc), vehicle: Klucel (hydroxypropylcellulose) (HPC) 104 % of control | dose: 32.0 mg/kg/injection, schedule: Q01DX009 (ip), vehicle: Klucel (hydroxypropylcellulose) (HPC) 95 % of control | dose: 32.0 mg/kg/injection, schedule: Q01DX009 (sc), vehicle: Klucel (hydroxypropylcellulose) (HPC) 100 % of control | dose: 32.0 mg/kg/injection, schedule: Q01DX010 (ip), vehicle: saline 90 % of control | dose: 32.0 mg/kg/injection, schedule: Q04DX003 (ip), vehicle: Klucel (hydroxypropylcellulose) (HPC) 100 % of control | dose: 32.0 mg/kg/injection, schedule: Q08DX002 (ip), vehicle: Klucel (hydroxypropylcellulose) (HPC) 95 % of control | dose: 64.0 mg/kg/injection, schedule: Q01DX001 (ip), vehicle: Klucel (hydroxypropylcellulose) (HPC) 100 % of control | dose: 64.0 mg/kg/injection, schedule: Q01DX001 (oral), vehicle: Klucel (hydroxypropylcellulose) (HPC) 104 % of control | dose: 64.0 mg/kg/injection, schedule: Q01DX001 (sc), vehicle: Klucel (hydroxypropylcellulose) (HPC) 109 % of control | dose: 64.0 mg/kg/injection, schedule: Q01DX009 (ip), vehicle: Klucel (hydroxypropylcellulose) (HPC) 116 % of control | dose: 64.0 mg/kg/injection, schedule: Q01DX009 (sc), vehicle: Klucel (hydroxypropylcellulose) (HPC) 113 % of control | dose: 64.0 mg/kg/injection, schedule: Q01DX010 (ip), vehicle: saline 90 % of control | dose: 64.0 mg/kg/injection, schedule: Q04DX003 (ip), vehicle: Klucel (hydroxypropylcellulose) (HPC) 100 % of control | dose: 64.0 mg/kg/injection, schedule: Q08DX002 (ip), vehicle: Klucel (hydroxypropylcellulose) (HPC) 91 % of control | dose: 128.0 mg/kg/injection, schedule: Q01DX001 (ip), vehicle: Klucel (hydroxypropylcellulose) (HPC) 100 % of control | dose: 128.0 mg/kg/injection, schedule: Q01DX001 (oral), vehicle: Klucel (hydroxypropylcellulose) (HPC) 100 % of control | dose: 128.0 mg/kg/injection, schedule: Q01DX001 (sc), vehicle: Klucel (hydroxypropylcellulose) (HPC) 100 % of control | dose: 128.0 mg/kg/injection, schedule: Q04DX003 (ip), vehicle: Klucel (hydroxypropylcellulose) (HPC) 100 % of control | dose: 128.0 mg/kg/injection, schedule: Q08DX002 (ip), vehicle: Klucel (hydroxypropylcellulose) (HPC) 100 % of control
